# Laboratory results as given in patent US4431742A, “Radioreceptor assay for benzodiazepines in saliva” (The United States of America as represented by the …, priority 1981, dated 1984).
# System: benzodiazepine receptor (fresh rat frontal cortex)
# Test: recovery of benzodiazepines pre-incubated with saliva, measured by benzodiazepine radioreceptor assay
# Type: binding
# Details: 100 nM diazepam pre-incubated with control saliva
row,SMILES,maximum percentage lowering of binding vs drug added directly with no saliva present
1,CN1C(=O)CN=C(c2ccccc2)c2cc(Cl)ccc21 [diazepam],equivalent

# System: diazepam receptor (fresh rat frontal cortex)
# Test: radioreceptor assay: inhibition of ^3 H-diazepam binding (selectivity, drugs incubated with saliva)
# Details: 10^-5 M, ^3 H-diazepam 0.50 nM
row,SMILES,inhibition of ^3 H-diazepam binding compared with saliva itself
1,O=c1[nH]c2ccccc2n1C1CCN(CCCC(c2ccc(F)cc2)c2ccc(F)cc2)CC1 [pimozide],failed to inhibit ^3 H-diazepam binding more than saliva itself
2,C=CCN1CC[C@]23CCCC[C@H]2[C@H]1Cc1ccc(O)cc13 [levallorphan],failed to inhibit ^3 H-diazepam binding more than saliva itself
3,C#CCN(C)Cc1ccccc1 [pargyline],failed to inhibit ^3 H-diazepam binding more than saliva itself
4,CN(C)CCCN1c2ccccc2Sc2ccc(Cl)cc21 [chlorpromazine],failed to inhibit ^3 H-diazepam binding more than saliva itself
5,CNCCCN1c2ccccc2CCc2ccccc21 [desmethylimipramine],failed to inhibit ^3 H-diazepam binding more than saliva itself
